Patent publication US20250188427A1, “METHOD OF PRODUCING TARGET VIRUS AND CULTURE COMPOSITION” (FUJIFILM Corporation, priority 2022, published 2025)

Tested on: AAV producer cell (HEK293)
Assay: AAV titer by ddPCR, JQ1 treatment with and without wash out (FIG. 4)
Format: cell-based, human
Settings: JQ1 4 μmol/L for 24 hours, medium exchanged to medium without JQ1 (with doxycycline 0.5 μg/mL), recovered after further 48 hours; versus 72 hours JQ1
Protocol: The HEK cell culture solution, which had been cultured for 72 hours after the gene introduction under the conditions of 37° C. and 8% CO2, was collected, and the cells were disrupted by freezing and thawing at −80° C. Then, the supernatant was collected by centrifugation at 13,800×g, 2 mmol/L (final concentration) MgCl2, and 25 U/mL Benzonase was added thereto, and a reaction was carried out at 37° C. for 2 hours to digest gDNA (genomic DNA) and residual plasmid. The sample after the reaction was incubated at 95° C. for 15 minutes, 70° C. for 3 minutes, 40° C. for 3 minutes, and 20° C. for 3 minutes in this order, to inactivate Benzonase, and the reactant was used as a ddPCR (Droplet Digital PCR) sample. […]. The sequences of the seq18, seq19, and seq20 are set forth in SEQ ID NOs: 18 to 20 in the sequence list.
In ddPCR, droplets were formed from the prepared solution using a droplet forming apparatus, and subsequently incubated at 95° C. for 10 minutes, 94° C. for 30 seconds, and 55° C. in this order for 40 cycles, and then incubated at 98° C. for 10 minutes. Measurement was performed using a droplet reader, and the AAV genomic titer (vg/mL) was calculated.
Furthermore, the produced AAV producer cell was seeded at 5×10^5 cells/mL and incubated for 6 hours, and then doxycycline (final concentration: 0.5 μg/mL) and JQ1 (final concentration: 4 μmol/L) were added. […]

Cc1sc2c(c1C)C(c1ccc(Cl)cc1)=N[C@@H](CC(=O)OC(C)(C)C)c1nnc(C)n1-2 [(+)-JQ1, (S)-(+)-tert-butyl 2-(4-(4-chlorophenyl)-2,3,9-trimethyl-6H-thieno[3,2-f][1,2,4]triazolo[4,3-a][1,4]diazepin-6-yl)acetate]
AAV titer per cell: further improved
